Experiment [1] concerns the target T1, Glutamate receptor 2 (Homo sapiens, UniProt P42262). Nature of the experiment: Binding affinity at iGluR2 receptor S1S2J domain expressed in sf9 cells by radioligand binding assay.
Experiment [2] addresses Glutamate receptor 1 (Homo sapiens, UniProt P42261). The experiment is described as follows: Binding affinity at iGluR1o receptor expressed in sf9 cells by radioligand binding assay.
For experiment [3], the target named is T1, Glutamate receptor 2. The experiment is described as follows: Binding affinity at iGluR2o(R) receptor expressed in sf9 cells by radioligand binding assay.
The target of experiment [4] is Glutamate receptor 3 (Homo sapiens, UniProt P42263). Nature of the experiment: Binding affinity at iGluR3o receptor expressed in sf9 cells by radioligand binding assay.
Glutamate receptor 3, sequence (P42263 whole entry): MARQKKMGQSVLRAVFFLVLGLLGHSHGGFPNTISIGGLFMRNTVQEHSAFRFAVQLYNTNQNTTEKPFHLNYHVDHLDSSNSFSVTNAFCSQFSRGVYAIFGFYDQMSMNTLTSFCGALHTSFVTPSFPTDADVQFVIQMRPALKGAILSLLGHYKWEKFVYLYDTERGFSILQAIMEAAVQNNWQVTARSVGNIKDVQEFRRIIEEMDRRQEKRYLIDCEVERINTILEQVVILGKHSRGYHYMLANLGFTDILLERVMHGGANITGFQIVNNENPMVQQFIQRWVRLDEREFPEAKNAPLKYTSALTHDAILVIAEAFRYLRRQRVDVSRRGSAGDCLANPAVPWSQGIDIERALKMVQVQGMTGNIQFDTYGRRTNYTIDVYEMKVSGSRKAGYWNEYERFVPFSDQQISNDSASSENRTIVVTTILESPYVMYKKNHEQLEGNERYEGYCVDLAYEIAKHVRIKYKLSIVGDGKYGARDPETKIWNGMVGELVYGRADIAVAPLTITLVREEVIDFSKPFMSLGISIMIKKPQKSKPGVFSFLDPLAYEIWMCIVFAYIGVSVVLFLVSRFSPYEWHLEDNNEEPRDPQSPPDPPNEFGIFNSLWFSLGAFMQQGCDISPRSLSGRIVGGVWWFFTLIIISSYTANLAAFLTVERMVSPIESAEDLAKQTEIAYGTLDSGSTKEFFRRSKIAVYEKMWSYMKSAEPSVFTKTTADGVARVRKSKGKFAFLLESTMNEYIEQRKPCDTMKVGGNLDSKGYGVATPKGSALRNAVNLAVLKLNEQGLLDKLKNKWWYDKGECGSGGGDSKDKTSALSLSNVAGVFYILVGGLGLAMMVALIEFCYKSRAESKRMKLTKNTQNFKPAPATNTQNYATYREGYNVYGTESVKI
Experiment [5] deals with Glutamate receptor 4 (Homo sapiens, UniProt P48058). The experiment is described as follows: Binding affinity at iGluR4o receptor expressed in sf9 cells by radioligand binding assay.
Glutamate receptor 4, sequence (P48058 whole entry): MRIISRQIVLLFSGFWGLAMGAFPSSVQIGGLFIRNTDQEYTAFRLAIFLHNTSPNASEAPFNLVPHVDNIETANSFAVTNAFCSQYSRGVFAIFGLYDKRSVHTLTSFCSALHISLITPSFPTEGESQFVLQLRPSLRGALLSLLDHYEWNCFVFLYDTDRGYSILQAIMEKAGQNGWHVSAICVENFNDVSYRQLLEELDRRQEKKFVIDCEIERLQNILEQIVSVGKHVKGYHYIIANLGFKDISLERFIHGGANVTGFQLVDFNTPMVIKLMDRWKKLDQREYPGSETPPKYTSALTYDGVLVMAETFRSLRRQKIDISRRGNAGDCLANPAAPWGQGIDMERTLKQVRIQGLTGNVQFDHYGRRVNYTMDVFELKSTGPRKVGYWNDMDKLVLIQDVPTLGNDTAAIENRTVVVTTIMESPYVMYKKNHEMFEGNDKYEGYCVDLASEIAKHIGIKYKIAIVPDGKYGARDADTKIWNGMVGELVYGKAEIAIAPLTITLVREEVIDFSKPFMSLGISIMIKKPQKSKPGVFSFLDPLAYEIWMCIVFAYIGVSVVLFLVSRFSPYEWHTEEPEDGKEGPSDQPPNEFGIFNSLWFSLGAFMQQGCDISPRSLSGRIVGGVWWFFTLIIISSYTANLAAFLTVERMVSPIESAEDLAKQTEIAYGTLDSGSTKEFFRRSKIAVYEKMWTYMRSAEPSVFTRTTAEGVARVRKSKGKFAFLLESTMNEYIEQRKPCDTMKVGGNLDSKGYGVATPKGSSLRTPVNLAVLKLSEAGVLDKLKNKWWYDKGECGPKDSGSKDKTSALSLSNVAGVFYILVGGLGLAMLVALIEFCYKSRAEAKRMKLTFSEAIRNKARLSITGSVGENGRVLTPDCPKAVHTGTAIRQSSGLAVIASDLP
Experiment [6] concerns the target Glutamate receptor ionotropic, kainate 2 (Homo sapiens, UniProt Q13002). The experiment is described as follows: Binding affinity at iGluR6(V,C,R) receptor expressed in sf9 cells by radioligand binding assay.

pKi: −log10 of the molar value.

Data on two compounds can be found in ChEMBL document CHEMBL1143163, “Structures of the ligand-binding core of iGluR2 in complex with the agonists (R)- and (S)-2-amino-3-(4-hydroxy-1,2,5-thiadiazol-3-yl)propionic acid explain their unusual equipotency” (J Med Chem, 2008).

T1 sequence (P42262 whole entry, the tested form may be a part): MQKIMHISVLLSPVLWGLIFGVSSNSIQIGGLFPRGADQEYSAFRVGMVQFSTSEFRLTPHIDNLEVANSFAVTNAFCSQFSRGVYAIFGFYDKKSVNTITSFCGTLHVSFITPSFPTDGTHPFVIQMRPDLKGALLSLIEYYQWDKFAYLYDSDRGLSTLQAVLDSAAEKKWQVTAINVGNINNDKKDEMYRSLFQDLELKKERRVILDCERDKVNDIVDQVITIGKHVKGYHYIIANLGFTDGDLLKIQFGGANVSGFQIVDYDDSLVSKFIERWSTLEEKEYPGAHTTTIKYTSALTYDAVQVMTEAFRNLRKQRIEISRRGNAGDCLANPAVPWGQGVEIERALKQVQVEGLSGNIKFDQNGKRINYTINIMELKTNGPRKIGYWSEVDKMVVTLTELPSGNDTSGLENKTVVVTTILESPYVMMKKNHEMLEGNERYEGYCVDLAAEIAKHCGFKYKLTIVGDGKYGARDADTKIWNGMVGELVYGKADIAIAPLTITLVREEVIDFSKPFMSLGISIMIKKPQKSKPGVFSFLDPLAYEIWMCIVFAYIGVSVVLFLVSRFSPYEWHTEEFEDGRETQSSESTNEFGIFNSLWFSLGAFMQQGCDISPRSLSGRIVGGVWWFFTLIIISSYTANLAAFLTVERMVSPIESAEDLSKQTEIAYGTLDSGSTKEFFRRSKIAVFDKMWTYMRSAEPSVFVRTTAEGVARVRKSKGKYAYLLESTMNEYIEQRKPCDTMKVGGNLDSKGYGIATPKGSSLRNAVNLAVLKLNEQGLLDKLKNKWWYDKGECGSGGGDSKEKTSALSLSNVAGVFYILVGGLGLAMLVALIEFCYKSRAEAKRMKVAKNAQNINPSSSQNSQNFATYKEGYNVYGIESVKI
Glutamate receptor 1, sequence (P42261 whole entry): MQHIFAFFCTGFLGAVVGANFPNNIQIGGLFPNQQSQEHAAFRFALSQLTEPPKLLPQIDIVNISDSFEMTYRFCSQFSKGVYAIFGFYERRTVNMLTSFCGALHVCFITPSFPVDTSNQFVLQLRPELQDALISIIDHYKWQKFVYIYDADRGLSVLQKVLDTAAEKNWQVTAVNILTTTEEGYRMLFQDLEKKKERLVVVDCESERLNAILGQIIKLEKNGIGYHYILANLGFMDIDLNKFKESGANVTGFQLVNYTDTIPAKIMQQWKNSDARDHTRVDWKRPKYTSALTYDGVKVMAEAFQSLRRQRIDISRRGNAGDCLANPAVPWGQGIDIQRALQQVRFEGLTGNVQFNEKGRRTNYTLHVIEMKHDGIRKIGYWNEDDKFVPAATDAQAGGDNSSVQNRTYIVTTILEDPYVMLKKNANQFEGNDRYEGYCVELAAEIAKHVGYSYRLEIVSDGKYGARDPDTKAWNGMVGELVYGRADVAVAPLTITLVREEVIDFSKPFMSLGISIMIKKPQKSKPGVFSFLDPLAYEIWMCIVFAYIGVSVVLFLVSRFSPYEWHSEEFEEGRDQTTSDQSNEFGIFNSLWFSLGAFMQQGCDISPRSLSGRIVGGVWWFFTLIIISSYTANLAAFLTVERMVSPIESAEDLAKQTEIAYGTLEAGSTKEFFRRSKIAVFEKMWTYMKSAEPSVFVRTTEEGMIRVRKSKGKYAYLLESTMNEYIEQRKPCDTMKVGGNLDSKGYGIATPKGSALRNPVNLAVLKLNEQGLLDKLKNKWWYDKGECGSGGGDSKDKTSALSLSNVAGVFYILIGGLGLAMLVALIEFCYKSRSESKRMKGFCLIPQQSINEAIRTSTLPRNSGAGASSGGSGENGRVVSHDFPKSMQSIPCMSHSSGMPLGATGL
Glutamate receptor ionotropic, kainate 2, sequence (Q13002 whole entry): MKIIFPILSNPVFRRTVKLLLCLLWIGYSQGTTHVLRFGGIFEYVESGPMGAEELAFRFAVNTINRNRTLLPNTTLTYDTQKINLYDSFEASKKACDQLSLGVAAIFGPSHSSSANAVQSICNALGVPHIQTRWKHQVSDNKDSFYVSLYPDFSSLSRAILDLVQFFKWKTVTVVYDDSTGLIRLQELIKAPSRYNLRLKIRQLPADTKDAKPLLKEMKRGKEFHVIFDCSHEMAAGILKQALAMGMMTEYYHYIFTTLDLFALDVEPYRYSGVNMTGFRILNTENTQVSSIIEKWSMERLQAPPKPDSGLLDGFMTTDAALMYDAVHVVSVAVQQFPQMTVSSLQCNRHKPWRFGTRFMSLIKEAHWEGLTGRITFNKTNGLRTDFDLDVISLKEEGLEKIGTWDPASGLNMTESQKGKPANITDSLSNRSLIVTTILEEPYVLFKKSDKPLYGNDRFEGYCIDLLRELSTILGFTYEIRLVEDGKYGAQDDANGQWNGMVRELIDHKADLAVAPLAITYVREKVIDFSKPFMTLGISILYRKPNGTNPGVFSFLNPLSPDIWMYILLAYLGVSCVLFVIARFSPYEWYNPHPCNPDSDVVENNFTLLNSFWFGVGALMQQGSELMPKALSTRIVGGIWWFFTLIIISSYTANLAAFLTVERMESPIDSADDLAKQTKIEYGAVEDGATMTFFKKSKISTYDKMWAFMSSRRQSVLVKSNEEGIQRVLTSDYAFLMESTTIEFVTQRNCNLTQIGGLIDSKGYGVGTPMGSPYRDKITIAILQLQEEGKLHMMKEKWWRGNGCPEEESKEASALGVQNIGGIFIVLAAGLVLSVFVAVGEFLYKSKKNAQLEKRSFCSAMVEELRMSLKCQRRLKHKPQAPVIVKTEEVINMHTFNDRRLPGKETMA

As to `N[C@H](Cc1ns[nH]c1=O)C(=O)O`, the pKi was 6.27 in experiment [1]; 6.82 in experiment [2]; 6.63 in experiment [3]; 5.97 in experiment [4]; 5.98 in experiment [5]; less than 3.00 in experiment [6].

Turning to `N[C@@H](Cc1nsnc1O)C(=O)O`, the pKi in experiment [1] was 6.49; in experiment [2], 6.73; in experiment [3] it was 6.56; in experiment [4], 6.80; in experiment [5], 6.74; in experiment [6], less than 4.00.
